Measured values as given in publication PMC3608737, “Odorant Metabolism Catalyzed by Olfactory Mucosal Enzymes Influences Peripheral Olfactory Responses in Rats” (PLoS ONE, 2013).
One block for each compound: values may come before it.

Experiments:
olfactory epithelium [1] = settings: for EOG amplitude compared with parent compound (coumarin or 4-MC): 1, 10 and 100 µM, normalized to IBMX; for EOG amplitude compared with parent compound (coumarin or 4-MC) / EOG response compared with quinoline: vehicle 0.01% DMSO; for EOG response compared with quinoline: 100 µM, normalized to IBMX responses
Description: Odorant stock solutions (1 M) were prepared in DMSO. Working solutions were prepared extemporaneously by diluting stock solutions with the Ringer solution. […] The IBMX stock solution (10 mM) was also prepared in DMSO. This stock solution was diluted 100-fold with the Ringer solution to produce a working solution (100 µM) containing 0.1% DMSO.
To assess sensory responses induced by odorant stimulation of the olfactory mucosa, we recorded EOGs. […] Rats were sacrificed by CO2 exposure and decapitated. The head was hemisected and the nasal septum was carefully removed to expose the endoturbinate system of the main olfactory system. The tissue was then superfused continuously (5 mL/min) at room temperature (22–25°C) with modified Ringer buffer containing 140 mM NaCl, 5 mM KCl, 2 mM CaCl2, 2 mM MgCl2, 10 mM HEPES [4-(2-hydroxyethyl)-1-piperazineethanesulfonic acid], adjusted to pH 7.2 and to 320 mOsm.L^−1 with glucose. Odorant stimuli were applied to the turbinates using a custom-built odorant delivery system consisting of a Rheodyne six-port injection valve equipped with a 200-µL loop. This valve injects odorant into the continuous stream of the Ringer solution. The distal part of the delivery system was fixed to a micromanipulator and adjusted to produce uniform flow in the vicinity of the recording electrode. The recording electrode was an Ag/AgCl wire positioned in a disposable pipette tip filled with a conductive gel (WPI, Sarasota, USA). The reference electrode was an 8-mm diameter Ag/AgCl disk covered with conductive gel that was placed under the rat hemi-head. Electrical signals were amplified using an AC/DC differential amplifier (A-M Systems, model 3000, Phymep, Paris, France), run through a low-pass filter of 300 Hz, digitized at 100 Hz using a Digidata 1440A interface board (Axon Instruments, DIPSI Industrie, Châtillon, France) and acquired using Axoscope 10.2 software (Axon Instruments). The data were analyzed using Clampfit software (Axon Instruments). The peak amplitudes of EOG responses were measured at the maximum negative voltage deflection from baseline. The data were normalized by dividing the peak amplitude by the maximum amplitude elicited by 100 µM of IBMX, a phosphodiesterase inhibitor that activates the transduction pathway bypassing the receptor step.

[2] = In vitro metabolism of coumarin by olfactory microsomes (HPLC); assay type: in vitro ADME, rat
Description: (§1) Animals were sacrificed by decapitation. […] The resulting pellet was resuspended in homogenization buffer. Hepatic subcellular fractions were prepared as described previously.
(§2) Coumarin Quinoline Isoamyl acetate
(§3) Subcellular fraction olfactory hepatic olfactory/hepatic olfactory/hepatic
(§4) microsomes microsomes microsomes S9

[3] = In vitro metabolism of coumarin by hepatic microsomes (HPLC); assay type: in vitro ADME, rat; settings: liver (hepatic microsomes) incubation
Description: as §1, §2, §3, §4

mammalian ORs = test system: mammalian ORs; design: method as in PMID 19261596; settings: approximately 460 mammalian ORs; cited from earlier work
CYPs [4] = assay: Inhibition of quinoline metabolism catalyzed by olfactory microsomes; assay type: biochemical, rat; settings: for IC50: substrate quinoline
Description: as §1, §2, §3, §4

CYPs [5] = assay: Inhibition of coumarin metabolite formation in olfactory microsomes; assay type: biochemical, rat; settings: for IC50: substrate coumarin
Description: as §1, §2, §3, §4

carboxylesterases = assay: Inhibition of isoamyl acetate hydrolysis in the olfactory S9 fraction; assay type: biochemical, rat
Description: as §1
(§5) Reactions involving isoamyl acetate were carried out for 10 min and were terminated by heating at 80°C for 15 min. After centrifugation at 12000 g for 10 min, isoamyl acetate metabolism was assessed by quantifying the acetate in a sample volume of 100 µL using an acetic acid assay kit (Megazyme, Bray, Ireland).
as §2, §3, §4

CYP = assay: Quinoline/coumarin metabolism in microsomes from OM superfused with inhibitor for 20 min; assay type: biochemical, rat; settings: 400 µM, superfusion 20 min
Description: Reactions were performed in triplicate at 37°C and were initiated by adding odorant to the mixtures after a 5-min pre-incubation period. […] Subsequently, the products were centrifuged at 12 000 g for 10 min. An aliquot of the supernatant (100 µl) was analyzed by reverse phase high performance liquid chromatography (HPLC) using a Waters HPLC system (Milford, MA, USA) equipped with a pump (model 600), an autosampler thermostat set at 10°C (model a717 plus), a photodiode array UV detector (model 996) and an Uptisphere C18-ODB column (5-µm particle size, 150×4.6 mm; Interchim, Montluçon, France). The effluent from the column was routed to an UV detector, which can scan wavelengths from 210 to 400 nm. […] The separation of coumarin and its metabolites was achieved using a solvent gradient program (at 0.6 mL/min) set at: 25% acetonitrile/75% formic acid (0.01% in water) for 10 min, a linear gradient to 80% acetonitrile for 20 min, hold at 80% acetonitrile for 10 min, and then return to the initial conditions.

olfactory epithelium [6] = assay: Effect of XME inhibitors on odorant-induced EOG responses; design: species or system rat
Description: Rats were sacrificed by CO2 exposure and decapitated. […] The data were analyzed using Clampfit software (Axon Instruments).
First, two series of odorant stimulations at 2-min intervals were performed with an 8-min recovery period between each series. Under control conditions, a 2-min interval is sufficient to recover normal response amplitude. Then, the inhibitor was diluted in the Ringer buffer (final concentration 400 µM) and applied to the olfactory turbinates at a rate of 2.5 mL/min for 20 min using the Rheodyne injection valve. The preparation was rinsed for 5 min with the Ringer buffer and the epithelium was stimulated by applying odorant using the same procedures as described above. EOG responses were recorded on endoturbinate IIb. IBMX was applied at the end of each measurement series for data normalization as described above. In addition to the peak maximum amplitude, the onset slope (10% to 90%) and the fast decay slope (90% to 40%) were measured and normalized to the corresponding EOG peak amplitude.

carboxylesterase = assay: Isoamyl acetate metabolism in S9 from OM superfused with inhibitor for 20 min; assay type: biochemical, rat; settings: 400 µM, superfusion 20 min
Description: To investigate the functional role of the olfactory XMEs, we recorded odorant-induced EOG responses before and after applying two phase I enzyme inhibitors, ABT and BNPP. First, we confirmed that superfusion of OM with ABT or BNPP was sufficient to inhibit CYP and carboxylesterase activities, respectively. For this purpose, the in vitro metabolism of quinoline, coumarin and isoamyl acetate was measured. All steps were performed as described previously except that the microsomal or S9 fractions were prepared from OM that had been superfused with inhibitors for 20 min. Superfusion of the OM with 400 µM of ABT or BNPP decreased the metabolism of quinoline/coumarin or isoamyl acetate, respectively, by approximately 30 to 80% (Fig. S6).
as §5

[7] = inhibitor 400 µM for 20 min, endoturbinate IIb

SMILES: Cc1cc(=O)oc2ccccc12 [4-MC, 4-methyl-coumarin]
- EOG amplitude compared with parent compound (coumarin or 4-MC) (olfactory epithelium [1]): lower in amplitude than the responses to coumarin

SMILES: CC(=O)O [acetic acid]
- effect of repeated application on the OM (olfactory epithelium [1]): caused tissue damage

- rate of coumarin biotransformation ([2]; OM (olfactory microsomes) incubation): 13.3 nmol/min/mg protein
- rate of coumarin biotransformation, OM versus liver incubation ([2]; OM higher than liver): 65 fold
- rate of coumarin biotransformation [3]: 0.2 nmol/min/mg protein
SMILES: O=c1ccc2ccccc2o1 [coumarin]
- number of ORs activated (mammalian ORs): 20

SMILES: CC(C)CCO [isoamyl alcohol]
- EOG response amplitude, lower than that elicited by isoamyl acetate (olfactory epithelium [1]; at any concentration (1, 10, 100 µM)): approximately 60%

SMILES: O=c1cc(O)c2ccccc2o1 [4-OH-C, 4-hydroxycoumarin]
- EOG amplitude compared with parent compound (coumarin or 4-MC) (olfactory epithelium [1]): significantly lower than those induced by their parent compounds
- number of ORs activated (mammalian ORs): only activated one OR

- IC50 (CYPs [4]; read-out: IC50 for inhibition of quinoline-1-oxide formation): 134 µM
- IC50 (CYPs [4]; read-out: IC50 for inhibition of quinoline-5,6-epoxide formation): 147 µM
- IC50 (CYPs [5]; read-out: IC50 for inhibition of 3-hydroxycoumarin formation): 41 µM
- IC50 (CYPs [5]; read-out: IC50 for inhibition of 6-hydroxycoumarin formation): 52 µM
- IC50 (CYPs [5]; read-out: IC50 for inhibition of 7-hydroxycoumarin formation): 19 µM
- decrease of metabolism of quinoline/coumarin after superfusion of the OM (CYP): 30 to 80%
SMILES: Nn1nnc2ccccc21 [ABT, 1-aminobenzotriazole]
- decrease of the metabolism of quinoline (CYPs [4]; inhibitor 400 µM): approximately 80%
- inhibition of coumarin metabolite formation (CYPs [5]; inhibitor 400 µM): Ninety percent
- effect on isoamyl acetate hydrolysis (carboxylesterases; data not shown): no effect
- effect on EOG responses to isoamyl acetate (olfactory epithelium [6]; ABT 400 µM for 20 min, endoturbinate IIb): did not affect
- effect on onset and decay slopes of EOG recordings (olfactory epithelium [6]; inhibitor 400 µM for 20 min): unaffected
- increase of maximum EOG amplitude elicited by coumarin (olfactory epithelium [6]; [7]): 43%
- increase of maximum EOG amplitude elicited by quinoline (olfactory epithelium [6]; [7]): 32%

SMILES: O=[N+]([O-])c1ccc(OP(=O)(O)Oc2ccc([N+](=O)[O-])cc2)cc1 [BNPP, bis-p-nitro-phenylphosphate]
- effect on olfactory metabolism of quinoline (CYPs [4]; data not shown): not affected
- effect on coumarin metabolism (CYPs [5]; data not shown): not affected
- IC50 (carboxylesterases; olfactory S9 fraction): 0.8 µM
- decrease of metabolism of isoamyl acetate after superfusion of the OM (carboxylesterase): 30 to 80%
- effect on EOG responses elicited by coumarin (olfactory epithelium [6]; BNPP treatment, stated in the discussion only): but not those elicited by quinoline and coumarin
- effect on onset and decay slopes of EOG recordings (olfactory epithelium [6]; inhibitor 400 µM for 20 min): did not modify
- increase of maximal EOG response amplitude to isoamyl acetate (olfactory epithelium [6]; [7]): 30%

SMILES: O=c1ccc2ccc(O)cc2o1 [7-OH-C, 7-hydroxycoumarin]
- EOG amplitude compared with parent compound (coumarin or 4-MC) (olfactory epithelium [1]): significantly lower than those induced by their parent compounds

SMILES: Cc1cc(=O)oc2cc(O[C@@H]3O[C@H](C(=O)O)[C@@H](O)[C@H](O)[C@H]3O)ccc12 [4-MU-G, 4-methylumbelliferone-β-D-glucuronide]
- EOG amplitude compared with parent compound (coumarin or 4-MC) (olfactory epithelium [1]): did not elicit any measurable EOG response

SMILES: Cc1cc(=O)oc2cc(O)ccc12 [4-MU, 4-methylumbelliferone]
- EOG amplitude compared with parent compound (coumarin or 4-MC) (olfactory epithelium [1]): significantly lower than those induced by their parent compounds

SMILES: Oc1cccc2cccnc12 [8-OH-Q, 8-hydroxyquinoline]
- EOG response compared with quinoline (olfactory epithelium [1]): half of that elicited by quinoline

SMILES: [O-][n+]1cccc2ccccc21 [Q-1-O, quinoline-1-oxide]
- EOG response compared with quinoline (olfactory epithelium [1]): half of that elicited by quinoline
